Measured values taken from patent US8030354B2, “Substituted biphenyl GPR40 modulators” (Amgen Inc., priority 2007, dated 2011).

Columns and labels:
GPR40 [1] = target: T1, GPR40 (Homo sapiens, UniProt O14842); assay: Inositol phosphate accumulation assay (A9_GPR40 cells); assay type: cell-based; design: expressed in transfected cells; host or cells: CHO cells stably transfected with GPR40 and aequorin; settings: inositol phosphate assay, A9_GPR40 cells, 1 hour; read-out: IP3 EC50
Protocol: Briefly, the Aequorin assays were performed on doubly stable CHO cells expressing GPR40 and Aequorin DNA. […] The luminescence was recorded over a period of 20 seconds with a Microlumat luminometer (Berthold). […] The inositol phosphate assay was performed on an A9 cell line stably transfected with GPR40 (A9_GPR40). The cells were incubated with different concentrations of compounds and [^3H] inositol accumulation was measured after 1 hour.
An A9 cell line stably transfected with GPR40 (A9_GPR40) was used in IP accumulation assays. A9_GPR40 cells were plated in 96-well plates containing 20,000 cells/well in DMEM containing 10% FBS. After the cells attached to the well surface, the media was replaced with inositol free DMEM containing 10% dialyzed FBS and 1 μCi, mL ^3H-inositol and incubated for 16 hours. Compounds were diluted in HBSS/10 mM LiCl containing a desired amount of HSA and added directly to cells. Following 1 hour incubation at 37° C., the media was replaced with 100 μL of 20 mM formic acid to quench the reaction. 50 μL of the extract was then added to 100 μL of SPA beads, incubated overnight, and measured on a TopCount the following day.

GPR40 [2] = target: T1, GPR40; assay: Cell-based aequorin assay (CHO cells stably expressing GPR40 and aequorin); design: expressed in transfected cells; host or cells: CHO cells stably transfected with GPR40 and aequorin; settings: activation of human GPR40, CHO cells, 0.01% HSA
Procedure, shortened: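 CHO cells stably co-expressing GPR40 and aequorin, loaded with coelenterazine (1 ug/mL, 2 h, room temperature) in H/HBSS with 20 mM Hepes and 0.01% fatty acid-free HSA. Serially diluted compounds added; luminescence recorded over 20 s. EC50 from dose-response of maximum relative light units.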

T1 sequence (O14842 whole entry): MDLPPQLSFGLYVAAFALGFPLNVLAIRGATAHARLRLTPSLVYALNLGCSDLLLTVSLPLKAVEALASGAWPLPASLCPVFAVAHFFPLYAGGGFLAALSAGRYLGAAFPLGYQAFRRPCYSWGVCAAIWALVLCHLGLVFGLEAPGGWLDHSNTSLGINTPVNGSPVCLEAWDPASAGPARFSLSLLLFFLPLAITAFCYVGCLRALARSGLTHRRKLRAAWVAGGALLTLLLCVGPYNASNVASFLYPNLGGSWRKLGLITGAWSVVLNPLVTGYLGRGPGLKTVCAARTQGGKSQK

EC50 (GPR40 [1]) [nM] | EC50 (GPR40 [2]) [nM] | SMILES
100 to 1000 | 100 to 1000 | CCCCOc1cc(COc2cccc([C@H](C)CC(=O)O)c2)ccc1-c1cc(OC)ccc1F (single isomer, unassigned) [Example 5, (3R)-3-(3-(((2Butyloxy)-2′-fluoro-5′-(methyloxy)-1,1′-biphenyl-4-yl)methyl)oxy)phenyl)butanoic acid or (3S)-3-(3-(((2-(butyloxy)-2′-fluoro-5′-(methyloxy)-1,1′-biphenyl-4-yl)methyl)oxy)phenyl)butanoic acid]
> 1000 | 1000 to 10000 | COc1ccc(F)c(-c2ccc(COc3cccc([C@@H](CC(=O)O)C(F)(F)F)c3)cc2C(C)(C)C)c1 (single isomer, unassigned) [Example 6, (3R)-3-(3-(((2-(1,1-Dimethylethyl)-2′-fluoro-5′-(methyloxy)-1,1′-biphenyl-4-yl)methyl)oxy)phenyl)-4,4,4-trifluorobutanoic acid or (3S)-3-(3-(((2-(1,1-dimethylethyl)-2′-fluoro-5′-(methyloxy)-1,1′-biphenyl-4-yl)methyl)oxy)phenyl)-4,4,4-trifluorobutanoic acid]
1000 to 10000 | 1000 to 10000 | CCCCOc1cc(COc2cccc([C@@H](CC(=O)O)C(F)(F)F)c2)ccc1-c1cc(OC)ccc1F (single isomer, unassigned) [Example 7, (3R)-3-(3-(((2-(Butyloxy)-2′-fluoro-5′-(methyloxy)-1,1′-biphenyl-4-yl)methyl)oxy)phenyl)-4,4,4-trifluorobutanoic acid or (3S)-3-(3-(((2-(butyloxy)-2′-fluoro-5′-(methyloxy)-1,1′-biphenyl-4-yl)methyl)oxy)phenyl)-4,4,4-trifluorobutanoic acid]
100 to 1000 | 100 to 1000 | COc1ccc(F)c(-c2ccc(COc3cccc([C@@H](CC(=O)O)C4CC4)c3)cc2C(C)(C)C)c1 (single isomer, unassigned) [Example 8, (3S)-3-Cyclopropyl-3-(3-(((2-(1,1-dimethylethyl)-2′-fluoro-5′-(methyloxy)-1,1′-biphenyl-4-yl)methyl)oxy)phenyl)propanoic acid or (3R)-3-cyclopropyl-3-(3-(((2-(1,1-dimethylethyl)-2′-fluoro-5′-(methyloxy)-1,1′-biphenyl-4-yl)methyl)oxy)phenyl)propanoic acid]
100 to 1000 | 100 to 1000 | COc1cccc(-c2ccc(COc3cccc([C@@H](CC(=O)O)C4CC4)c3)cc2C(C)(C)C)c1 (single isomer, unassigned) [Example 12, (3S)-3-Cyclopropyl-3-(3-(((2-(1,1-dimethylethyl)-3′-(methyloxy)-1,1′-biphenyl-4-yl)methyl)oxy)phenyl)propanoic acid or (3R)-3-cyclopropyl-3-(3-(((2-(1,1-dimethylethyl)-3′-(methyloxy)-1,1′-biphenyl-4-yl)methyl)oxy)phenyl)propanoic acid]
100 to 1000 | 100 to 1000 | CC[C@H](CC(=O)O)c1cccc(OCc2ccc(-c3cc(OC)ccc3F)c(C(C)(C)C)c2)c1 (single isomer, unassigned) [Example 17, (3R)-3-(3-(((2-(1,1-Dimethylethyl)-2′-fluoro-5′-(methyloxy)-1,1′-biphenyl-4-yl)methyl)oxy)phenyl)pentanoic acid or (3S)-3-(3-(((2-(1,1-dimethylethyl)-2′-fluoro-5′-(methyloxy)-1,1′-biphenyl-4-yl)methyl)oxy)phenyl)pentanoic acid]
100 to 1000 | 100 to 1000 | CCCCOc1cc(COc2cccc([C@H](CC)CC(=O)O)c2)ccc1-c1cc(OC)ccc1F (single isomer, unassigned) [Example 18, (3R)-3-(3-(((2-(Butyloxy)-2′-fluoro-5′-(methyloxy)-1,1′-biphenyl-4-yl)methyl)oxy)phenyl)pentanoic acid or (3S)-3-(3-(((2-(butyloxy)-2′-fluoro-5′-(methyloxy)-1,1′-biphenyl-4-yl)methyl)oxy)phenyl)pentanoic acid]
100 to 1000 | 100 to 1000 | CCCCOc1cc(COc2cccc([C@H](C)CC(=O)O)c2)ccc1-c1cccc(OC)c1 (single isomer, unassigned) [Example 20, (3R)-3-(3-(((2-(Butyloxy)-3′-(methyloxy)-1,1′-biphenyl-4-yl)methyl)oxy)phenyl)butanoic acid or (3S)-3-(3-(((2-(butyloxy)-3′-(methyloxy)-1,1′-biphenyl-4-yl)methyl)oxy)phenyl)butanoic acid]
100 to 1000 | 100 to 1000 | CCC[C@H](CC(=O)O)c1cccc(OCc2ccc(-c3cccc(OC)c3)c(C(C)(C)C)c2)c1 (single isomer, unassigned) [Example 33, (3R)-3-(3-(((2-(1,1-Dimethylethyl)-3′-(methyloxy)-1,1′-biphenyl-4-yl)methyl)oxy)phenyl)hexanoic acid or (3S)-3-(3-(((2-(1,1-dimethylethyl)-3′-(methyloxy)-1,1′-biphenyl-4-yl)methyl)oxy)phenyl)hexanoic acid]
100 to 1000 | 100 to 1000 | C[C@H](CC(=O)O)c1cccc(OCc2ccc(-c3cc(O)ccc3F)c(C(C)(C)C)c2)c1 (single isomer, unassigned) [Example 35, (3R)-3-(3-(((2-(1,1-Dimethylethyl)-2′-fluoro-5′-hydroxy-1,1′-biphenyl-4-yl)methyl)oxy)phenyl)butanoic acid or (3S)-3-(3-(((2-(1,1-dimethylethyl)-2′-fluoro-5′-hydroxy-1,1′-biphenyl-4-yl)methyl)oxy)phenyl)butanoic acid]
1000 to 10000 | 100 to 1000 | COc1ccc(F)c(-c2ccc(COc3cccc(C(C)CC(=O)O)c3)cc2C(C)(C)C)c1 (single isomer, unassigned) [Example 42, (3R)-3-(3-(((2-(1,1-Dimethylethyl)-2′-fluoro-5′-(methyloxy)-1,1′-biphenyl-4-yl)methyl)oxy)phenyl)butanoic acid or (3S)-3-(3-(((2-(1,1-dimethylethyl)-2′-fluoro-5′-(methyloxy)-1,1′-biphenyl-4-yl)methyl)oxy)phenyl)butanoic acid]
100 to 1000 | 100 to 1000 | CCC[C@H](CC(=O)O)c1cccc(OCc2ccc(-c3cc(OC)ccc3F)c(C(C)(C)C)c2)c1 (single isomer, unassigned) [Example 43, (3R)-3-(3-(((2-(1,1-Dimethylethyl)-2′-fluoro-5′-(methyloxy)-1,1′-biphenyl-4-yl)methyl)oxy)phenyl)hexanoic acid or (3S)-3-(3-(((2-(1,1-dimethylethyl)-2′-fluoro-5′-(methyloxy)-1,1′-biphenyl-4-yl)methyl)oxy)phenyl)hexanoic acid]
1000 to 10000 | 100 to 1000 | COc1ccc(F)c(-c2ccc(COc3cccc([C@H](C)CC(=O)O)c3)cc2OC(F)(F)F)c1 (single isomer, unassigned) [Example 46, (3R)-3-(3-(((2′-Fluoro-5′-(methyloxy)-2-((trifluoromethyl)oxy)-1,1′-biphenyl-4-yl)methyl)oxy)phenyl)butanoic acid or (3S)-3-(3-(((2′-fluoro-5′-(methyloxy)-2-((trifluoromethyl)oxy)-1,1′-biphenyl-4-yl)methyl)oxy)phenyl)butanoic acid]
 | 1000 to 10000 | CSc1cccc(-c2ccc(COc3cccc(CCC(=O)O)c3)cc2C(C)(C)C)c1 [Example 61.4, 3-(3-(((2-(1,1-Dimethylethyl)-3′-(methylsulfanyl)-1,1′-biphenyl-4-yl)methyl)oxy)phenyl)propanoic acid]
 | 1000 to 10000 | COc1ccc(F)c(-c2ccc(COc3cccc([C@@H](CC(=O)O)c4ccon4)c3)cc2C2=CCCC2(C)C)c1 [Example 94.1, (3R)-3-(3-(((2-(5,5-Dimethyl-1-cyclopenten-1-yl)-2′-fluoro-5′-(methyloxy)-1,1′-biphenyl-4-yl)methyl)oxy)phenyl)-3-(3-isoxazolyl)propanoic acid]
 | 1000 to 10000 | COc1ccc(F)c(-c2ccc(COc3cccc([C@@H](CC(=O)O)c4ccon4)c3)cc2C(C)(C)C)c1 [Example 94.2, (3R)-3-(3-(((2-(1,1-Dimethylethyl)-2′-fluoro-5′-(methyloxy)-1,1′-biphenyl-4-yl)methyl)oxy)phenyl)-3-(3-isoxazolyl)propanoic acid]
 | 1000 to 10000 | COc1ccc(F)c(-c2ccc(COc3cncc(CCC(=O)O)c3)cc2C(C)(C)C)c1 [Example 96, 3-(5-(((2-(1,1-Dimethylethyl)-2′-fluoro-5′-(methyloxy)-1,1′-biphenyl-4-yl)methyl)oxy)-3-pyridinyl)propanoic acid]
 | 1000 to 10000 | COc1ccc(F)c(-c2ccc(COc3cccc(C4(CC(=O)O)CCCCC4)c3)cc2C(C)(C)C)c1 [Example 105.2, {1-[3-(2-tert-Butyl-2′-fluoro-5′-methoxy-biphenyl-4-ylmethoxy)-phenyl]-cyclohexyl}-acetic acid]
